According to patent US20100298285A1, “Biclycloheteroaryl Compounds as P2x7 Modulators and Uses Thereof” (priority 2006, published 2010):

Tested on: IL-1β release, THP-1 cells
Assay: IL-1β release assay in differentiated THP-1 cells stimulated with BzATP (Example 9)
Assay type: cell-based
Settings: Homo sapiens; for inhibition at 0.3 µM: 0.3 μM compound ("+" symbols); for inhibition at 0.3 µM / inhibition at 0.1 µM: differentiated THP-1 cells, 250 uM BzATP, read-out: IL-1β% Inhib. @ 0.3 or 0.1 μM; for IC50: THP-1 cells, BzATP 250 uM, four parameter logistic fit; for inhibition at 0.1 µM: 0.1 μM compound ("*" symbols)
In short: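 THP-1 cells differentiated 16 h with 100 ng/mL LPS + 100 ng/mL IFN-γ, re-primed 2 h with fresh LPS 100 ng/mL, pretreated 30 min with compound, then stimulated with BzATP 250 uM final for 45 min. Supernatant IL-1β by ELISA; background-adjusted % inhibition, IC50 from four-parameter logistic fit.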

IC50	SMILES	inhibition at 0.3 µM	inhibition at 0.1 µM
–	O=C(Cc1ccc(C(F)(F)F)c(F)c1)Nc1c(Cl)ccc2c1CCN(C(=O)c1ccccc1C(F)(F)F)C2 [Compound 3106]	26 to 50%	–
–	CCCC(=O)N1CCc2c(ccc(Cl)c2NC(=O)Cc2cccc(C(F)(F)F)c2F)C1 [Compound 3187]	0 to 25%	–
165 nM	CC(C)(C)C(=O)N1CCc2c(ccc(C3CC3)c2NC(=O)Cc2ccc(C(F)(F)F)c(F)c2)C1 [Compound 3482]	–	–
–	O=C(Cc1cccc(C(F)(F)F)c1F)Nc1c(Cl)ccc2c1CCN(C(=O)c1cccc(Cl)c1Cl)C2 [Compound 3179]	26 to 50%	–
–	O=C(Cc1ccc(C(F)(F)F)cc1)Nc1c(Cl)ccc2c1CCN(S(=O)(=O)c1cccc(F)c1)C2 [Compound 3003]	–	0 to 25%
–	O=C(Cc1cccc(C(F)(F)F)c1F)Nc1c(Cl)ccc2c1CCN(C(=O)c1ccccc1C(F)(F)F)C2 [Compound 3170]	0 to 25%	–
35.1 nM	Cc1ccc2c(c1NC(=O)Cc1ccc(C(F)(F)F)c(F)c1)CCN(C(=O)[C@H]1CCCN1)C2 [Compound 3061, 2-(3-Fluoro-4-trifluoromethyl-phenyl)-N-[6-methyl-2-((R)-pyrrolidine-2-carbonyl)-1,2,3,4-tetrahydro-isoquinolin-5-yl]-acetamide]	≥ 76%	–
23.8 nM	Cc1ccc2c(c1NC(=O)Cc1ccc(C(F)(F)F)c(F)c1)CCN(C(=O)C1CCC1)C2 [Compound 3473]	–	–
–	O=C(Cc1ccc(C(F)(F)F)c(F)c1)Nc1c(Cl)ccc2c1CCN(C(=O)C1CCCC1)C2 [Compound 3080]	51 to 75%	–
–	O=C(Cc1ccc(C(F)(F)F)cc1)Nc1c(Cl)ccc2c1CCN(S(=O)(=O)c1ccc(F)cc1)C2 [Compound 3004]	–	0 to 25%
–	Cc1cccc(S(=O)(=O)N2CCc3c(ccc(Cl)c3NC(=O)Cc3ccc(C(F)(F)F)cc3)C2)c1 [Compound 3024]	–	0 to 25%
–	O=C(Cc1ccc(C(F)(F)F)cc1)Nc1c(Cl)ccc2c1CCN(S(=O)(=O)c1ccc(F)cc1F)C2 [Compound 3007]	–	0 to 25%
–	O=C(Cc1cccc(C(F)(F)F)c1F)Nc1c(Cl)ccc2c1CCN(C(=O)/C=C/c1ccccc1)C2 [Compound 3182]	0 to 25%	–
–	N#Cc1ccc(C(=O)N2CCc3c(ccc(Cl)c3NC(=O)Cc3cccc(C(F)(F)F)c3F)C2)cc1 [Compound 3161]	0 to 25%	–
153 nM	O=C(Cc1ccc(C(F)(F)F)c(F)c1)Nc1cccc2c1CCN(C(=O)CC1CCCCC1)C2 [Compound 3042]	≥ 76%	–
–	O=C(Cc1ccc(C(F)(F)F)cc1)Nc1c(Cl)ccc2c1CCN(S(=O)(=O)c1cccc(Cl)c1Cl)C2 [Compound 3014]	–	0 to 25%
–	O=C(Cc1ccc(C(F)(F)F)c(F)c1)Nc1c(Cl)ccc2c1CCN(C(=O)c1ccc(C(F)(F)F)nc1)C2 [Compound 3132]	0 to 25%	–
–	Cc1ccccc1C(=O)N1CCc2c(ccc(Cl)c2NC(=O)Cc2cccc(C(F)(F)F)c2F)C1 [Compound 3176]	0 to 25%	–
–	CCCC(=O)N1CCc2c(ccc(Cl)c2NC(=O)Cc2ccc(C(F)(F)F)c(F)c2)C1 [Compound 3123]	0 to 25%	–
–	O=C(Cc1ccc(C(F)(F)F)c(F)c1)Nc1c(Cl)ccc2c1CCN(C(=O)c1cc(Cl)cc(Cl)c1)C2 [Compound 3131]	0 to 25%	–

IC50	SMILES	inhibition at 0.3 µM	inhibition at 0.1 µM
–	O=C(Cc1ccc(C(F)(F)F)cc1)Nc1c(Cl)ccc2c1CCN(S(=O)(=O)c1ccc(C(F)(F)F)cc1)C2 [Compound 3033]	–	0 to 25%
–	O=C(Cc1cccc(C(F)(F)F)c1F)Nc1c(Cl)ccc2c1CCN(C(=O)CCc1ccccc1)C2 [Compound 3151]	26 to 50%	–
49.3 nM	O=C(Cc1ccc(C(F)(F)F)cc1)Nc1c(Cl)ccc2c1CCN(S(=O)(=O)c1ccccc1Cl)C2 [Compound 3001, N-[6-Chloro-2-(2-chloro-benzenesulfonyl)-1,2,3,4-tetrahydro-isoquinolin-5-yl]-2-(4-trifluoromethyl-phenyl)-acetamide]	≥ 76%	–
–	CN(C)c1ccc(C(=O)N2CCc3c(ccc(Cl)c3NC(=O)Cc3ccc(C(F)(F)F)c(F)c3)C2)cc1 [Compound 3096]	26 to 50%	–
–	Cc1cc(C(=O)N2CCc3c(ccc(Cl)c3NC(=O)Cc3cccc(C(F)(F)F)c3F)C2)nn1C [Compound 3181]	0 to 25%	–
85.8 nM	CCC(=O)N1CCc2c(ccc(C)c2NC(=O)Cc2ccc(C(F)(F)F)c(F)c2)C1 [Compound 3203]	–	–
–	O=C(Cc1cccc(C(F)(F)F)c1F)Nc1c(Cl)ccc2c1CCN(C(=O)c1ccc(Oc3ccccc3)nc1)C2 [Compound 3197]	0 to 25%	–
–	O=C(Cc1cccc(C(F)(F)F)c1F)Nc1c(Cl)ccc2c1CCN(C(=O)c1ccc(Cl)cc1Cl)C2 [Compound 3163]	26 to 50%	–
–	COc1cccc(C(=O)N2CCc3c(ccc(Cl)c3NC(=O)Cc3ccc(C(F)(F)F)c(F)c3)C2)c1 [Compound 3090]	0 to 25%	–
–	O=C(Cc1ccc(C(F)(F)F)c(F)c1)Nc1c(Cl)ccc2c1CCN(C(=O)c1nccs1)C2 [Compound 3134]	26 to 50%	–
–	O=C(Cc1cccc(C(F)(F)F)c1F)Nc1c(Cl)ccc2c1CCN(C(=O)c1cc(Cl)cc(Cl)c1)C2 [Compound 3195]	0 to 25%	–
–	O=C(Cc1ccc(C(F)(F)F)c(F)c1)Nc1c(Cl)ccc2c1CCN(C(=O)/C=C/c1ccccc1)C2 [Compound 3118]	26 to 50%	–
–	CC(C)C(=O)N1CCc2c(ccc(Cl)c2NC(=O)Cc2ccc(C(F)(F)F)c(F)c2)C1 [Compound 3088]	0 to 25%	–
–	O=C(Cc1ccc(C(F)(F)F)c(F)c1)Nc1c(Cl)ccc2c1CCN(C(=O)c1ccc(F)cc1)C2 [Compound 3091]	0 to 25%	–
145 nM	O=C(Cc1ccc(C(F)(F)F)c(F)c1)Nc1cccc2c1CCN(C(=O)[C@H]1COc3ccccc3O1)C2 [Compound 3037]	≥ 76%	–
–	Cc1ccc(F)cc1S(=O)(=O)N1CCc2c(ccc(Cl)c2NC(=O)Cc2ccc(C(F)(F)F)cc2)C1 [Compound 3011]	–	0 to 25%
–	O=C(Cc1ccc(C(F)(F)F)c(F)c1)Nc1c(Cl)ccc2c1CCN(C(=O)c1ccc3ccccc3n1)C2 [Compound 3125]	26 to 50%	–
492 nM	CS(=O)(=O)N1CCc2c(ccc(Cl)c2NC(=O)Cc2ccc(C(F)(F)F)cc2)C1 [Compound 3050]	26 to 50%	–
48.6 nM	Cc1ccc2c(c1NC(=O)Cc1ccc(C(F)(F)F)c(F)c1)CCN(C(=O)C(C)C)C2 [Compound 3215]	–	–
27.9 nM	COc1ccc(OC)c(S(=O)(=O)N2CCc3c(ccc(C)c3NC(=O)Cc3ccc(C(F)(F)F)c(F)c3)C2)c1 [Compound 3452]	–	–

IC50	SMILES	inhibition at 0.3 µM	inhibition at 0.1 µM
–	O=C(Cc1cccc(C(F)(F)F)c1F)Nc1c(Cl)ccc2c1CCN(C(=O)C1CCCC1)C2 [Compound 3144]	0 to 25%	–
–	O=C(Cc1ccc(C(F)(F)F)c(F)c1)Nc1c(Cl)ccc2c1CCN(C(=O)CCC1CCCCC1)C2 [Compound 3130]	51 to 75%	–
–	CC(Oc1ccccc1)C(=O)N1CCc2c(ccc(Cl)c2NC(=O)Cc2ccc(C(F)(F)F)c(F)c2)C1 (centres unmarked) [Compound 3135]	26 to 50%	–
443 nM	O=C(Cc1ccc(C(F)(F)F)c(F)c1)Nc1cccc2c1CCN(C(=O)C1CCOC1)C2 (centres unmarked) [Compound 3039]	26 to 50%	–
–	O=C(Cc1ccc(C(F)(F)F)c(F)c1)Nc1c(Cl)ccc2c1CCN(C(=O)C1COc3ccccc3O1)C2 (centres unmarked) [Compound 3110]	0 to 25%	–
–	COc1ccccc1C(=O)N1CCc2c(ccc(Cl)c2NC(=O)Cc2cccc(C(F)(F)F)c2F)C1 [Compound 3184]	0 to 25%	–
–	O=C(Cc1ccc(C(F)(F)F)cc1)Nc1c(Cl)ccc2c1CCN(S(=O)(=O)c1cccc(C(F)(F)F)c1)C2 [Compound 3032]	–	0 to 25%
–	CC(=O)N1CCC(C(=O)N2CCc3c(ccc(Cl)c3NC(=O)Cc3ccc(C(F)(F)F)c(F)c3)C2)CC1 [Compound 3122]	0 to 25%	–
–	O=C(Cc1ccc(C(F)(F)F)cc1)Nc1c(Cl)ccc2c1CCN(S(=O)(=O)c1cccc(Cl)c1)C2 [Compound 3012]	–	0 to 25%
–	O=C(Cc1cccc(C(F)(F)F)c1F)Nc1c(Cl)ccc2c1CCN(C(=O)c1cccc(Cl)c1)C2 [Compound 3156]	0 to 25%	–
201 nM	COc1ccc2c(c1NC(=O)Cc1ccc(C(F)(F)F)c(F)c1)CCN(C(=O)C(C)(C)C)C2 [Compound 3474, N-[2-(2,2-Dimethyl-propionyl)-6-methoxy-1,2,3,4-tetrahydro-isoquinolin-5-yl]-2-(3-fluoro-4-trifluoromethyl-phenyl)-acetamide]	–	–
–	O=C(Cc1ccc(C(F)(F)F)c(F)c1)Nc1c(Cl)ccc2c1CCN(C(=O)c1ccncc1)C2 [Compound 3126]	0 to 25%	–
–	O=C(Cc1cccc(C(F)(F)F)c1F)Nc1c(Cl)ccc2c1CCN(C(=O)c1ccc(F)cc1F)C2 [Compound 3175]	0 to 25%	–
–	O=C(Cc1ccc(C(F)(F)F)c(F)c1)Nc1c(Cl)ccc2c1CCN(C(=O)c1ccc(Cl)cc1Cl)C2 [Compound 3100]	0 to 25%	–
–	N#Cc1ccc(S(=O)(=O)N2CCc3c(ccc(Cl)c3NC(=O)Cc3ccc(C(F)(F)F)cc3)C2)cc1 [Compound 3029]	–	0 to 25%
172 nM	O=C(Cc1ccc(C(F)(F)F)c(F)c1)Nc1c(Cl)ccc2c1CCN(C(=O)CC1CCCC1)C2 [Compound 3103]	51 to 75%	–
34.8 nM	O=C(Cc1cccc(C(F)(F)F)c1F)Nc1c(Cl)ccc2c1CCN(S(=O)(=O)C1CC1)C2 [Compound 3313]	–	–
–	O=C(Cc1cccc(C(F)(F)F)c1F)Nc1c(Cl)ccc2c1CCN(C(=O)COCc1ccccc1)C2 [Compound 3160]	0 to 25%	–
